Test results published in PubChem BioAssay (NCI).
Values joined by “and” are separate entries in the source; they are usually repeats but may differ in a detail not shown here. Equal entries are not always repeated.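 Values below derive from 48-hour exposures of cells grown in 96-well plates, with endpoints linearly interpolated between the two concentrations bracketing the appropriate inhibition level. At the GI50, growth is halved. TGI marks complete inhibition of growth.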

What was measured:
Assay in all cases: NCI anticancer screen, dose series, 48 h
[1] = test system: SK-MEL-2 melanoma
[2] = test system: SF-295 CNS
[3] = test system: HOP-62 NSCLC
[4] = test system: HL-60(TB) leukemia
[5] = test system: A549 NSCLC
[6] = test system: OVCAR-8 ovarian
[7] = test system: IGROV1 ovarian
[8] = test system: OVCAR-5 ovarian
[9] = test system: NCI/ADR-RES ovarian
[10] = test system: BT-549 breast

SMILES | TGI [1] [µM] | TGI [2] [µM] | TGI [3] [µM] | TGI [4] [µM] | TGI [5] [µM] | TGI [6] [µM] | TGI [7] [µM] | TGI [8] [µM] | GI50 [1] [µM] | GI50 [2] [µM] | GI50 [4] | GI50 [5] [µM] | GI50 [6] [µM] | GI50 [7] [µM] | GI50 [8] [µM] | GI50 [9] [µM] | TGI [9] [µM] | GI50 [3] [µM] | GI50 [10] [µM] | TGI [10] [µM]
O=c1c(O)cc2c(O)oc3c(=O)c(O)c(O)c4c(O)oc1c2c43 | > 100 | 50.4 | > 100 | > 100 | > 100 | > 100 | > 100 | > 100 |  |  |  |  |  |  |  |  |  |  |  | 
C=C1C(=O)c2cc3c(cc2C(c2cc(OC)c(OC)c(OC)c2)[C@@H]1C(=O)O)OCO3 (stereo partly specified) |  | > 100 |  |  | > 100 | > 100 | > 100 |  |  |  |  |  |  |  |  |  |  |  |  | 
C=C(COC(C)=O)CC(/C=C(\C)CC/C=C(\C)CO)OC(C)=O (stereo unspecified) | > 100 | > 100 | > 100 | > 100 | > 100 | > 100 | > 100 | > 100 |  |  |  |  |  |  |  |  |  |  |  | 
N#Cc1c(-c2ccccc2)cc(-c2cccs2)c(C#N)c1N |  | > 100 | > 100 | > 100 | > 100 | > 100 |  |  |  |  |  |  |  |  |  |  |  |  |  | 
C=C1c2[nH]c3ccccc3c2CC(C(=O)O)N1C(O)c1ccc(S(=O)(=O)O)cc1 (stereo unspecified) | > 100 | > 100 | > 100 | > 100 | > 100 | > 100 |  | > 100 |  |  |  |  |  |  |  |  |  |  |  | 
O=C([O-])CCc1ccccc1.O=C([O-])CCc1ccccc1.O=C([O-])CCc1ccccc1.O=C([O-])CCc1ccccc1.[Mo+2].[Mo+2] | > 100 | > 100 |  | > 100 | > 100 | > 100 | > 100 | > 100 | > 100 | > 100 | > 100 µM | > 100 | > 100 | > 100 | > 100 |  |  |  |  | 
OCCCc1cnco1 |  | > 100 | > 100 | > 100 | > 100 | > 100 | > 100 | > 100 |  |  |  |  |  |  |  |  |  |  |  | 
O=C(O)c1cn(C2CC2)c2cc(N3CCN(C(=O)Nc4nc(-c5ccc(Br)cc5)cs4)CC3)c(F)cc2c1=O |  | > 100 | > 100 |  | > 100 | > 100 | > 100 |  |  | 3.06 |  | 3.68 | 3.72 | 3.38 |  | > 100 | > 100 | 4.34 |  | 
NC(=S)N/N=C(\CCC(=O)Nc1ccccc1[N+](=O)[O-])CC(=O)c1ccco1 | > 100 | > 100 | > 100 | > 100 | > 100 | > 100 | > 100 | > 100 |  |  |  |  |  |  |  |  |  |  |  | 
C=CCC12CCC(=O)[C@@]1(C)CC=C(O)C2=O (stereo partly specified) |  | > 100 | > 100 | > 100 | > 100 | > 100 | > 100 | > 100 |  |  |  |  |  |  |  |  |  |  |  | 
O=C1C(=C([O-])c2ccccc2)C(=O)c2ccccc21.O=C1C(=C([O-])c2ccccc2)C(=O)c2ccccc21.[Co+2] |  | > 100 | > 100 |  | > 100 | > 100 | > 100 | > 100 |  | 59.6 |  | > 100 | > 100 | > 100 | > 100 |  |  | > 100 |  | 
CCc1cccc(CC)c1NC(=O)CC1SC(N)=NC1=O (stereo unspecified) | > 100 | > 100 | > 100 | > 100 | > 100 | > 100 | > 100 | > 100 |  |  |  |  |  |  |  |  |  |  |  | 
O=c1nc(N2CCCC2)nc(N2CCCC2)s1 | > 100 | > 100 | > 100 | > 100 | > 100 | > 100 | > 100 | > 100 |  |  |  |  |  |  |  |  |  |  |  | 
CC(=O)CC(=O)NC=O | > 100 | > 100 | > 100 | > 100 | > 100 | > 100 | > 100 | > 100 |  |  |  |  |  |  |  |  |  |  |  | 
COC1=CC(=O)OC(/C=C(C)/C=C/C2=C(C)CCCC2(C)C)C1 (stereo unspecified) | > 100 | > 100 | > 100 | > 100 | > 100 | > 100 | > 100 | > 100 |  |  |  |  |  |  |  |  |  |  |  | 
CC(=O)OCC1OC([Se-])C(OC(C)=O)C(OC(C)=O)C1OC(C)=O.N#CCC[PH+](CCC#N)CCC#N.[Au+] (stereo unspecified) | 48.4 | 35.9 | 68.8 | 4.31 | 42.4 | > 93.5 | > 81.6 | 41.9 | 11.8 | 13.7 | 1.87 µM | 9.09 | 12.7 | 24.5 | 9.81 |  |  | 25.2 |  | 
N#Cc1ccc(C(C2C(=O)NC(=O)NC2=O)C2C(=O)NC(=O)NC2=O)cc1 | > 100 | > 100 | > 100 | > 100 | > 100 | > 100 | > 100 | > 100 |  |  |  |  |  |  |  |  |  |  |  | 
CC(=O)SC(SC(C)=O)SC(C)=O | > 100 |  | > 100 | > 100 | > 100 | > 100 | > 100 | > 100 |  |  |  |  |  |  |  |  |  |  |  | 

SMILES | TGI [1] [µM] | TGI [2] [µM] | TGI [3] [µM] | TGI [4] [µM] | TGI [5] [µM] | TGI [6] [µM] | TGI [7] [µM] | TGI [8] [µM] | GI50 [1] [µM] | GI50 [2] [µM] | GI50 [4] | GI50 [5] [µM] | GI50 [6] [µM] | GI50 [7] [µM] | GI50 [8] [µM] | GI50 [9] [µM] | TGI [9] [µM] | GI50 [3] [µM] | GI50 [10] [µM] | TGI [10] [µM]
CCC1c2cc3n(c(=O)c2COC1O)Cc1c-3nc2ccccc2c1Cl (stereo unspecified) | > 100 | > 100 | > 100 | > 100 | > 100 | > 100 | > 100 | > 100 |  |  |  |  |  |  |  |  |  |  |  | 
COc1cc(C2C(C(=O)O)=C(COC(C)=O)Oc3cc4c(cc32)OCO4)cc(OC)c1OC(C)=O (stereo unspecified) | > 100 | > 100 | > 100 | > 100 | > 100 | > 100 | > 100 |  |  |  |  |  |  |  |  |  |  |  |  | 
COC(=O)c1nc(C(=O)OC)c2c([nH]c3ccccc32)c1C(=O)OC | > 100 | > 100 | > 100 |  | > 100 | > 100 | > 100 | > 100 |  |  |  |  |  |  |  |  |  |  |  | 
O=C(Cc1ccccc1)N/N=C(/c1nc2ccc([N+](=O)[O-])cc2[nH]c1=O)C(O)c1ccccc1Cl (stereo unspecified) | > 100 | > 100 | > 100 | > 100 | > 100 | > 100 | > 100 | > 100 |  |  |  |  |  |  |  |  |  |  |  | 
O=C1NC(=O)C2C1C1C=C3c4ccccc4N(c4ccccc4)C32[C@H]2C(=O)NC(=O)[C@@H]12 (stereo partly specified) | > 100 | > 100 | > 100 | > 100 | > 100 | > 100 | > 100 | > 100 |  |  |  |  |  |  |  |  |  |  |  | 
CCc1nc2ccccc2c(=O)n1/N=C(\N=Nc1ccc(Cl)cc1)c1ccccc1 | 82.5 | 53.6 | 69.4 | > 100 | 98.7 | > 100 | > 100 | > 100 |  |  |  |  |  |  |  |  |  |  |  | 
C#CCn1c(=O)c2cccnc2n(CC#C)c1=O | > 100 | > 100 | > 100 | > 100 | > 100 |  |  | > 100 |  |  |  |  |  |  |  |  |  |  |  | 
O=C(O)CCC1CCc2cccc(OCC(=O)O)c2C1=O (stereo unspecified) |  | > 100 | > 100 | > 100 | > 100 | > 100 | > 100 |  |  |  |  |  |  |  |  |  |  |  |  | 
CC(C)(CN1CCCCC1)C(=O)CC(SCCN)c1ccc(Cl)cc1 (stereo unspecified) | 3.32 | 12.4 | 12.8 |  | 10.2 | 5.45 | 8.48 | 13.2 |  |  |  |  |  |  |  |  |  |  |  | 
CCCCN(CCCC)CC(C(=O)Nc1ccc([N+](=O)[O-])cc1[N+](=O)[O-])/C(C)=N\NC(=O)C[N+](C)(C)C (stereo unspecified) | > 100 | > 100 | > 100 | > 100 | > 100 | > 100 | > 100 | > 100 |  |  |  |  |  |  |  |  |  |  |  | 
Cc1ccc(NC(=O)/C(=N\NC(N)=S)C(C#N)c2ccccc2C)cc1C (stereo unspecified) | > 100 | > 100 | > 100 | > 100 | > 100 | > 100 | > 100 | > 100 |  |  |  |  |  |  |  |  |  |  |  | 
O=[N+]([O-])c1ccc(/C(Cl)=C/c2ccc(/C=C(\Cl)c3ccc([N+](=O)[O-])cc3[N+](=O)[O-])cc2)c([N+](=O)[O-])c1 | > 100 | > 100 | > 100 | > 100 | > 100 | > 100 | > 100 | > 100 |  |  |  |  |  |  |  |  |  |  |  | 
N#CC(/C(=N/NC(N)=S)C(=O)Nc1cccc(Cl)c1)c1ccccc1 (stereo unspecified) | > 100 | > 100 | > 100 | > 100 | > 100 | > 100 | > 100 | > 100 |  |  |  |  |  |  |  |  |  |  |  | 
O=C(/C=C/c1nnc2n(Cc3ccccc3)c(=O)c3c4c(sc3n12)CCCC4)c1ccccc1 |  | > 100 | > 100 | > 100 |  | 0.419 | > 100 | > 100 | 3.2 |  | 0.407 µM and 0.332 µM |  | 0.0387 | > 100 | > 100 |  |  |  |  | 
CC(=O)N(CCN1C(=O)c2ccccc2C1=O)CCN1C(=O)c2ccccc2C1=O | > 100 | > 100 | > 100 | > 100 | > 100 | > 100 |  |  |  |  |  |  |  |  |  |  |  |  |  | 
NC(CO)c1ccc(OCc2ccccc2)cc1 (stereo unspecified) | > 100 | > 100 | > 100 | > 100 | > 100 | > 100 | > 100 | > 100 |  |  |  |  |  |  |  |  |  |  |  | 
N#Cc1c2ccccc2c2nnc3ccccc3n12 |  | > 100 | 60.1 | > 100 | 36.7 | 45.9 | 92.2 |  |  | 49 | > 100 µM | 13.5 | 11.1 | 19.3 |  |  |  | 24.4 | 12 | 45.1
